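Following 48 hours of exposure in 96-well plates, responses at five concentrations were used to interpolate endpoints linearly. The concentration for 50% growth inhibition is given as GI50. TGI denotes the concentration required for complete inhibition of growth.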
What was measured:
Assay in all cases: growth of human tumour cells (NCI), 48 h; in the data active = GI50 below about 0.43 µM; inactive = the rest
[1] = tested on: NCI-H226 lung
[2] = tested on: NCI-H23 lung
[3] = tested on: NCI-H460 lung
[4] = tested on: NCI-H522 lung
[5] = tested on: NCI/ADR-RES ovarian
[6] = tested on: OVCAR-3 ovarian
[7] = tested on: OVCAR-4 ovarian
[8] = tested on: OVCAR-5 ovarian
[9] = tested on: OVCAR-8 ovarian
[10] = tested on: PC-3 prostate
[11] = tested on: RPMI-8226 leukemia
[12] = tested on: RXF 393 renal
[13] = tested on: SF-268 CNS
[14] = tested on: SF-295 CNS
[15] = tested on: SF-539 CNS
[16] = tested on: SK-MEL-2 melanoma
[17] = tested on: SK-MEL-28 melanoma
[18] = tested on: SK-MEL-5 melanoma
[19] = tested on: SK-OV-3 ovarian
[20] = tested on: SN12C renal
[21] = tested on: SNB-19 CNS
[22] = tested on: SNB-75 CNS
[23] = tested on: SR leukemia
[24] = tested on: SW-620 colon
[25] = tested on: T-47D breast
[26] = tested on: TK-10 renal
[27] = tested on: U251 CNS
[28] = tested on: UACC-257 melanoma
[29] = tested on: UACC-62 melanoma
[30] = tested on: UO-31 renal

COc1cccc(-c2ccc(/C=N/NC(=O)c3[nH]c4ccc(Br)cc4c3-c3ccccc3)s2)c1
25.8 µM: TGI [8]
12.5 µM: TGI [3]
inactive: GI50 [2] 5.55 µM | GI50 [3] 3.01 µM | GI50 [4] 1.11 µM | GI50 [5] 2.16 µM | GI50 [6] 2.24 µM | GI50 [7] 8.82 µM | GI50 [8] 3.64 µM | GI50 [9] 3.24 µM | GI50 [10] 3.75 µM | GI50 [11] 3.84 µM | GI50 [12] 5.03 µM | GI50 [13] 3.72 µM | GI50 [14] 3.07 µM | GI50 [15] 2.51 µM | GI50 [16] 5.98 µM | GI50 [17] 8.33 µM | GI50 [18] 2.7 µM | GI50 [19] 5.45 µM | GI50 [20] 3.74 µM | GI50 [21] 9.17 µM | GI50 [22] 2.63 µM | GI50 [23] 2.56 µM | GI50 [24] 3.71 µM | GI50 [25] 5.6 µM | GI50 [26] 9.97 µM | GI50 [27] 4.92 µM | GI50 [28] 25.5 µM | GI50 [29] 3.35 µM | GI50 [30] 5.4 µM
93.5 µM: TGI [12]
9.12 µM: TGI [22]
17.7 µM: TGI [23]
6.8 µM: TGI [15]
> 100 µM: TGI [1] | TGI [7] | TGI [10] | TGI [11] | TGI [16] | TGI [17] | TGI [19] | TGI [21] | TGI [24] | TGI [25] | TGI [26] | TGI [28] | TGI [29] | TGI [30]
11.1 µM: TGI [4]
30.9 µM: TGI [20]
7.69 µM: TGI [6]
72.2 µM: TGI [27]
5.91 µM: TGI [5]
10.4 µM: TGI [18]
84.3 µM: TGI [13]
87 µM: TGI [14]
56.7 µM: TGI [2]
16.9 µM: TGI [9]

Source: PubChem BioAssay (NCI)
